The source made the active and inactive calls.
Tests used:
Staphylococcus aureus [1] = experiment: Antibacterial activity against antibiotic resistant Staphylococcus aureus 4904/C assessed as reduction in microbial growth incubated for 24 hrs by microdilution assay; type: functional
Staphylococcus aureus [2] = experiment: Antibacterial activity against antibiotic resistant Staphylococcus aureus 4679/B assessed as reduction in microbial growth incubated for 24 hrs by microdilution assay; type: functional
Staphylococcus aureus [3] = experiment: Antibacterial activity against antibiotic resistant Staphylococcus aureus 4740/B assessed as reduction in microbial growth incubated for 24 hrs by microdilution assay; type: functional
Staphylococcus aureus [4] = experiment: Antibacterial activity against antibiotic resistant Staphylococcus aureus 4460/A assessed as reduction in microbial growth incubated for 24 hrs by microdilution assay; type: functional
Staphylococcus aureus [5] = experiment: Antibacterial activity against antibiotic resistant Staphylococcus aureus 4862/C assessed as reduction in microbial growth incubated for 24 hrs by microdilution assay; type: functional
Staphylococcus aureus [6] = experiment: Antibacterial activity against antibiotic resistant Staphylococcus aureus 4482/A assessed as reduction in microbial growth incubated for 24 hrs by microdilution assay; type: functional
Staphylococcus aureus [7] = experiment: Antibacterial activity against antibiotic resistant Staphylococcus aureus 4717/B assessed as reduction in microbial growth incubated for 24 hrs by microdilution assay; type: functional
Staphylococcus aureus [8] = experiment: Antibacterial activity against antibiotic resistant Staphylococcus aureus 78/CF assessed as reduction in microbial growth incubated for 24 hrs by microdilution assay; type: functional
Staphylococcus aureus [9] = experiment: Antibacterial activity against antibiotic resistant Staphylococcus aureus 4504/A assessed as reduction in microbial growth incubated for 24 hrs by microdilution assay; type: functional
Staphylococcus aureus [10] = experiment: Antibacterial activity against wild type methicillin resistant Staphylococcus aureus 4968/C assessed as reduction in microbial growth incubated for 24 hrs by microdilution assay; type: functional
Staphylococcus aureus [11] = experiment: Antibacterial activity against antibiotic resistant Staphylococcus aureus 77/CF assessed as reduction in microbial growth incubated for 24 hrs by microdilution assay; type: functional
Staphylococcus aureus [12] = experiment: Antibacterial activity against antibiotic resistant Staphylococcus aureus 4502/A assessed as reduction in microbial growth incubated for 24 hrs by microdilution assay; type: functional
Staphylococcus aureus [13] = experiment: Antibacterial activity against antibiotic resistant Staphylococcus aureus 4883/C assessed as reduction in microbial growth incubated for 24 hrs by microdilution assay; type: functional
Staphylococcus aureus [14] = experiment: Antibacterial activity against antibiotic resistant Staphylococcus aureus 4880/C assessed as reduction in microbial growth incubated for 24 hrs by microdilution assay; type: functional
Staphylococcus aureus [15] = experiment: Antibacterial activity against antibiotic resistant Staphylococcus aureus 4463/A assessed as reduction in microbial growth incubated for 24 hrs by microdilution assay; type: functional
Staphylococcus aureus [16] = experiment: Antibacterial activity against antibiotic resistant Staphylococcus aureus 4788/B assessed as reduction in microbial growth incubated for 24 hrs by microdilution assay; type: functional
Staphylococcus aureus [17] = experiment: Antibacterial activity against wild type methicillin resistant Staphylococcus aureus 4561/A assessed as reduction in microbial growth incubated for 24 hrs by microdilution assay; type: functional
Staphylococcus aureus [18] = experiment: Antibacterial activity against antibiotic resistant Staphylococcus aureus 4566/A assessed as reduction in microbial growth incubated for 24 hrs by microdilution assay; type: functional
Staphylococcus aureus [19] = experiment: Antibacterial activity against antibiotic resistant Staphylococcus aureus 4461/A assessed as reduction in microbial growth incubated for 24 hrs by microdilution assay; type: functional
Staphylococcus aureus [20] = experiment: Antibacterial activity against antibiotic resistant Staphylococcus aureus 4738/B assessed as reduction in microbial growth incubated for 24 hrs by microdilution assay; type: functional
Staphylococcus aureus [21] = experiment: Antibacterial activity against antibiotic resistant Staphylococcus aureus 5079/C assessed as reduction in microbial growth incubated for 24 hrs by microdilution assay; type: functional
Staphylococcus aureus [22] = experiment: Antibacterial activity against antibiotic resistant Staphylococcus aureus 4557/A assessed as reduction in microbial growth incubated for 24 hrs by microdilution assay; type: functional
Staphylococcus aureus [23] = experiment: Antibacterial activity against antibiotic resistant Staphylococcus aureus 4515/A assessed as reduction in microbial growth incubated for 24 hrs by microdilution assay; type: functional
Staphylococcus aureus [24] = experiment: Antibacterial activity against wild type methicillin resistant Staphylococcus aureus 5017/C assessed as reduction in microbial growth incubated for 24 hrs by microdilution assay; type: functional
Escherichia coli [25] = experiment: Antibacterial activity against multidrug-resistant Escherichia coli CE5556 expressing CTX-M-15 assessed as reduction in microbial growth incubated for 24 hrs by microdilution assay; type: functional
Staphylococcus aureus [26] = experiment: Antibacterial activity against methicillin resistant Staphylococcus aureus 4591/A assessed as reduction in microbial growth incubated for 24 hrs by microdilution assay; type: functional
Cell membrane [27] = experiment: Induction of membrane permeabilization in Escherichia coli CCM 3954 assessed as propidium iodide influx measured after 80 mins by spectrofluorometer method; details: dose 2.5-5 mg/L, DDE = dose-dependent effect
Staphylococcus aureus [28] = experiment: Antibacterial activity against Staphylococcus aureus ATCC 29213 = CCM 4223 assessed as inhibition of bacterial growth incubated for 24 hrs by microdilution assay; type: functional
[29] = Hemolytic activity in human RBC assessed as haemoglobin release measured after 3 hr; type: toxicity, cell-based, Erythrocyte; details: red blood cells (erythrocytes)
[30] = Gradient chromatographic hydrophobicity index of the compound at pH 3.7 by HPLC analysis; type: ADME
Enterococcus faecalis = experiment: Antibacterial activity against Enterococcus faecalis ATCC 29212 = CCM 4224 assessed as inhibition of bacterial growth incubated for 24 hrs by microdilution assay; type: functional
Cell membrane [31] = experiment: Induction of plasma membrane depolarization in Escherichia coli CCM 3954 assessed as increase in fluorescence intensity at 2.5 mg/L measured after 80 seconds by DiSC3-5 dye based spectrofluorometer method; type: cell membranes; details: time 80.0 sec
Staphylococcus aureus [32] = experiment: Antibacterial activity against Staphylococcus aureus ATCC 29213 = CCM 4223 assessed as inhibition of bacterial growth incubated for 24 hrs in presence of BSA by microdilution assay; type: functional
Pseudomonas aeruginosa [33] = experiment: Antibacterial activity against multidrug-resistant Pseudomonas aeruginosa assessed as reduction in microbial growth incubated for 24 hrs by microdilution assay; type: functional
Escherichia coli [34] = experiment: Antibacterial activity against Escherichia coli ATCC 25922 = CCM 3954 assessed as inhibition of bacterial growth incubated for 24 hrs by microdilution assay; type: functional
Lipid bilayer [35] = experiment: Induction of membrane disruption of bacterial inner membrane mimic DOPE/DOPG (2:1) large unilamellar vesicles assessed as carboxyfluorescein leakage at 2.5 mg/L measured after 90 mins by spectrofluorometer analysis
Pseudomonas aeruginosa [36] = experiment: Antibacterial activity against Pseudomonas aeruginosa ATCC 27853 = CCM 3955 assessed as inhibition of bacterial growth incubated for 24 hrs by microdilution assay; type: functional
Lipid bilayer [37] = experiment: Induction of membrane disruption of […] membrane mimic DOPC/DOPE (2:1) large unilamellar vesicles assessed as carboxyfluorescein leakage at 2.5 mg/L measured after 90 mins by spectrofluorometer analysis
Enterococcus faecium = experiment: Antibacterial activity against vancomycin resistant Enterococcus faecium 419/ANA assessed as reduction in microbial growth incubated for 24 hrs by microdilution assay; type: functional
[38] = tested on: Staphylococcus epidermidis; experiment: Antibacterial activity against Staphylococcus epidermidis CCM 7221 assessed as inhibition of bacterial growth incubated for 24 hrs by microdilution assay; type: functional
Escherichia coli [39] = experiment: Antibacterial activity against Escherichia coli ATCC 25922 = CCM 3954 assessed as inhibition of bacterial growth incubated for 24 hrs in presence of BSA by microdilution assay; type: functional

CC1(C)S[C@@H]2[C@H](NC(=O)Cc3ccccc3)C(=O)N2[C@H]1C(=O)O [PENICILLIN G]
0.25 µg/mL: MIC (Staphylococcus aureus [1]) | MIC (Staphylococcus aureus [3]) | MIC (Staphylococcus aureus [8]) | MIC (Staphylococcus aureus [9]) | MIC (Staphylococcus aureus [12]) | MIC (Staphylococcus aureus [13]) | MIC (Staphylococcus aureus [14]) | MIC (Staphylococcus aureus [15]) | MIC (Staphylococcus aureus [16]) | MIC (Staphylococcus aureus [18]) | MIC (Staphylococcus aureus [21]) | MIC (Staphylococcus aureus [22])
> 4 µg/mL: MIC (Staphylococcus aureus [10]) | MIC (Staphylococcus aureus [24])
0.5 µg/mL: MIC (Staphylococcus aureus [2]) | MIC (Staphylococcus aureus [7]) | MIC (Staphylococcus aureus [11]) | MIC (Staphylococcus aureus [23])
> 2 µg/mL: MIC (Staphylococcus aureus [17])
2 µg/mL: MIC (Staphylococcus aureus [6])
1 µg/mL: MIC (Staphylococcus aureus [4]) | MIC (Staphylococcus aureus [5]) | MIC (Staphylococcus aureus [19]) | MIC (Staphylococcus aureus [20])

CCCCCCCCOP(=O)(CCN(CCCN)CCCN)OCCCCCCCCCCOP(=O)(CCN(CCCN)CCCN)OCCCCCCCC.Cl.Cl.Cl.Cl.Cl.Cl (stereo unspecified)
0.125 µg/mL: MIC (Staphylococcus aureus [32])
40.6: CHI [30]
1 µg/mL: MIC (Escherichia coli [25]) | MIC (Pseudomonas aeruginosa [33]) | MIC (Pseudomonas aeruginosa [36]) | MIC (Enterococcus faecium)
0.5 µg/mL: MIC (Staphylococcus aureus [28]) | MIC (Enterococcus faecalis) | MIC (Escherichia coli [34]) | MIC [38] | MIC (Escherichia coli [39])
3 µg/mL: MIC (Staphylococcus aureus [26])
active: Activity (Cell membrane [27]) Dde | Activity (Cell membrane [31]) | Activity (Lipid bilayer [35]) | Activity (Lipid bilayer [37])
6.4 µg/mL: HC50 at 3 h [29]
